Conditions: for mass density: Vibrating tube method

FC(F)=C(F)C(F)(F)F [hexafluoropropene]
Conditions | mass density [kg/m3] | vapor or sublimation pressure [kPa]
348.16 K, 7707.9 kPa, Liquid | 1145.12 | –
348.16 K, 7771.4 kPa, Liquid | 1146.25 | –
348.16 K, 7835.4 kPa, Liquid | 1147.35 | –
348.16 K, 7897.7 kPa, Liquid | 1148.36 | –
348.16 K, 7961.9 kPa, Liquid | 1149.49 | –
348.16 K, 8025.7 kPa, Liquid | 1150.51 | –
348.16 K, 8087.3 kPa, Liquid | 1151.69 | –
348.16 K, 8149.7 kPa, Liquid | 1152.67 | –
348.16 K, 8214.5 kPa, Liquid | 1153.77 | –
348.16 K, 8278.5 kPa, Liquid | 1154.85 | –
348.16 K, 8341.3 kPa, Liquid | 1155.78 | –
348.16 K, 8406.3 kPa, Liquid | 1157 | –
348.16 K, 8469.9 kPa, Liquid | 1157.97 | –
348.16 K, 8531.4 kPa, Liquid | 1158.94 | –
348.16 K, 8594.4 kPa, Liquid | 1159.97 | –
348.16 K, 8659.7 kPa, Liquid | 1160.84 | –
348.16 K, 8722.7 kPa, Liquid | 1161.97 | –
348.16 K, 8786.5 kPa, Liquid | 1163 | –
348.16 K, 8848.4 kPa, Liquid | 1163.83 | –
348.16 K, 8911.7 kPa, Liquid | 1164.85 | –
348.16 K, 8974.2 kPa, Liquid | 1165.76 | –
348.16 K, 9039.8 kPa, Liquid | 1166.77 | –
348.16 K, 9105.6 kPa, Liquid | 1167.83 | –
348.16 K, 9170.3 kPa, Liquid | 1168.8 | –
348.16 K, 9233.7 kPa, Liquid | 1169.7 | –
348.16 K, 9295.2 kPa, Liquid | 1170.74 | –
348.16 K, 9362.9 kPa, Liquid | 1171.78 | –
348.16 K, 9399.4 kPa, Liquid | 1172.31 | –
348.16 K, 9466.9 kPa, Liquid | 1173.32 | –
348.16 K, 9534.3 kPa, Liquid | 1174.34 | –
348.16 K, 9571.4 kPa, Liquid | 1174.89 | –
348.16 K, 9609.6 kPa, Liquid | 1175.39 | –
348.16 K, 9656.8 kPa, Liquid | 1176.01 | –
348.16 K, 9696 kPa, Liquid | 1176.45 | –
348.16 K, 9739.9 kPa, Liquid | 1177.06 | –
348.16 K, 9788.9 kPa, Liquid | 1175.42 | –
348.16 K, 9833.1 kPa, Liquid | 1175.9 | –
348.16 K, 9877.8 kPa, Liquid | 1176.32 | –
348.16 K, 9944.3 kPa, Liquid | 1179.73 | –
348.16 K, 10016 kPa, Liquid | 1180.6 | –
348.22 K, Liquid, Closed cell (Static) method | – | 2500.5
353.12 K, 6.6 kPa, Fluid (supercritical or subcritical phases) | 0.343 | –
353.12 K, 8.7 kPa, Fluid (supercritical or subcritical phases) | 0.497 | –
353.12 K, 11.7 kPa, Fluid (supercritical or subcritical phases) | 0.619 | –
353.12 K, 14.3 kPa, Fluid (supercritical or subcritical phases) | 0.737 | –
353.12 K, 16.6 kPa, Fluid (supercritical or subcritical phases) | 0.793 | –
353.12 K, 24.1 kPa, Fluid (supercritical or subcritical phases) | 1.232 | –
353.12 K, 26.7 kPa, Fluid (supercritical or subcritical phases) | 1.395 | –
353.12 K, 28.8 kPa, Fluid (supercritical or subcritical phases) | 1.442 | –
353.12 K, 32.7 kPa, Fluid (supercritical or subcritical phases) | 1.694 | –
353.12 K, 35.6 kPa, Fluid (supercritical or subcritical phases) | 1.827 | –
353.12 K, 38.2 kPa, Fluid (supercritical or subcritical phases) | 1.904 | –
353.12 K, 101.9 kPa, Fluid (supercritical or subcritical phases) | 5.291 | –
353.12 K, 111.4 kPa, Fluid (supercritical or subcritical phases) | 5.735 | –
353.12 K, 120.9 kPa, Fluid (supercritical or subcritical phases) | 6.245 | –
353.12 K, 129.7 kPa, Fluid (supercritical or subcritical phases) | 6.695 | –
353.12 K, 140.7 kPa, Fluid (supercritical or subcritical phases) | 7.318 | –
353.12 K, 151.2 kPa, Fluid (supercritical or subcritical phases) | 7.845 | –
353.12 K, 160.5 kPa, Fluid (supercritical or subcritical phases) | 8.339 | –
353.12 K, 169.9 kPa, Fluid (supercritical or subcritical phases) | 8.914 | –
353.12 K, 180.3 kPa, Fluid (supercritical or subcritical phases) | 9.389 | –
353.12 K, 189.6 kPa, Fluid (supercritical or subcritical phases) | 9.904 | –
353.12 K, 199 kPa, Fluid (supercritical or subcritical phases) | 10.374 | –
353.12 K, 209.3 kPa, Fluid (supercritical or subcritical phases) | 11.01 | –
353.12 K, 220.4 kPa, Fluid (supercritical or subcritical phases) | 11.538 | –
353.12 K, 230.8 kPa, Fluid (supercritical or subcritical phases) | 12.133 | –
353.12 K, 242.1 kPa, Fluid (supercritical or subcritical phases) | 12.723 | –
